Reference: patent publication US20260285850A1, “SUBSTITUTED OXAZOLIDINONES AND IMIDAZOLINONES AS HERBICIDES” (FMC CORPORATION, priority 2023, published 2026)

What was measured:
Assay type in all cases: in vivo
[1] = system: horseweed (Erigeron canadensis); assay: Test A postemergence application, visual injury rating 0-100; conditions: 10 days; for Horseweed plant response rating (0-100): 31 g ai/ha, postemergence, 0 = no effect, 100 = complete control; for Horseweed plant response rating (0 to 100 scale): Postemergence, 125 g ai/ha, 0 is no effect, 100 is complete control
Outline: (§1)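 Rating: visual, day 10, untreated plants as reference, 0 no effect to 100 full control. Plants were in loam-sand and were treated either preemergence via directed soil spray or postemergence at the one- to two-leaf stage.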

[2] = system: ragweed (common ragweed, Ambrosia artemisiifolia); assay: as above; conditions: 10 days; for Ragweed plant response rating (0-100): 31 g ai/ha, postemergence, 0 = no effect, 100 = complete control; for Ragweed plant response rating (0 to 100 scale): Postemergence, 125 g ai/ha, 0 is no effect, 100 is complete control
Outline: as §1

[3] = system: barnyardgrass (Echinochloa crus-galli); assay: as above; conditions: 10 days; for Barnyardgrass plant response rating (0-100): 31 g ai/ha, postemergence, 0 = no effect, 100 = complete control; for Barnyardgrass plant response rating (0 to 100 scale): Postemergence, 125 g ai/ha, 0 is no effect, 100 is complete control
Outline: as §1

[4] = system: soybean (Glycine max); assay: as above; conditions: 10 days; for Soybean plant response rating (0-100): 31 g ai/ha, postemergence, 0 = no effect, 100 = complete control; for Soybean plant response rating (0 to 100 scale): Postemergence, 125 g ai/ha, 0 is no effect, 100 is complete control
Outline: as §1

[5] = system: galium (catchweed bedstraw, Galium aparine); assay: as above; conditions: 10 days; for Galium plant response rating (0-100): 31 g ai/ha, postemergence, 0 = no effect, 100 = complete control; for Galium plant response rating (0 to 100 scale): Postemergence, 125 g ai/ha, 0 is no effect, 100 is complete control
Outline: as §1

[6] = system: oat, wild (wild oat, Avena fatua); assay: as above; conditions: 10 days; for Oat, Wild plant response rating (0-100): 31 g ai/ha, postemergence, 0 = no effect, 100 = complete control; for Oat, Wild plant response rating (0 to 100 scale): Postemergence, 125 g ai/ha, 0 is no effect, 100 is complete control
Outline: as §1

[7] = system: wheat (Triticum aestivum); assay: as above; conditions: 10 days; for Wheat plant response rating (0-100): 31 g ai/ha, postemergence, 0 = no effect, 100 = complete control; for Wheat plant response rating (0 to 100 scale): Postemergence, 125 g ai/ha, 0 is no effect, 100 is complete control
Outline: as §1

[8] = system: palmer (palmer amaranth, palmer pigweed, Amaranthus palmeri); assay: as above; conditions: 10 days; for Amaranth, Palmer plant response rating (0-100): 31 g ai/ha, postemergence, 0 = no effect, 100 = complete control; for Amaranth, Palmer / Pigweed, Palmer plant response rating (0 to 100 scale): Postemergence, 125 g ai/ha, 0 is no effect, 100 is complete control
Outline: as §1

[9] = system: ryegrass, Italian (italian ryegrass, Lolium multiflorum); assay: as above; conditions: 10 days; for Ryegrass, Italian plant response rating (0-100): 31 g ai/ha, postemergence, 0 = no effect, 100 = complete control; for Ryegrass, Italian plant response rating (0 to 100 scale): Postemergence, 125 g ai/ha, 0 is no effect, 100 is complete control
Outline: as §1

[10] = system: kochia (Bassia scoparia); assay: as above; conditions: 10 days; for Kochia plant response rating (0-100): 31 g ai/ha, postemergence, 0 = no effect, 100 = complete control; for Kochia plant response rating (0 to 100 scale): Postemergence, 125 g ai/ha, 0 is no effect, 100 is complete control
Outline: as §1

[11] = system: corn (Zea mays); assay: as above; conditions: 10 days; for Corn plant response rating (0-100): 31 g ai/ha, postemergence, 0 = no effect, 100 = complete control; for Corn plant response rating (0 to 100 scale): Postemergence, 125 g ai/ha, 0 is no effect, 100 is complete control
Outline: as §1

[12] = system: blackgrass (Alopecurus myosuroides); assay: as above; conditions: 10 days; for Blackgrass plant response rating (0-100): 31 g ai/ha, postemergence, 0 = no effect, 100 = complete control; for Blackgrass plant response rating (0 to 100 scale): Postemergence, 125 g ai/ha, 0 is no effect, 100 is complete control
Outline: as §1

[13] = system: ragweed (common ragweed, Ambrosia artemisiifolia); assay: Test A preemergence soil spray, visual injury rating 0-100; conditions: 10 days, 0 = no effect, 100 = complete control; for Ragweed plant response rating (0-100): 31 g ai/ha; for Ragweed plant response rating (0 to 100 scale): 125 g ai/ha
Outline: as §1

[14] = system: barnyardgrass (Echinochloa crus-galli); assay: as above; conditions: 10 days, 0 = no effect, 100 = complete control; for Barnyardgrass plant response rating (0-100): 31 g ai/ha; for Barnyardgrass plant response rating (0 to 100 scale): 125 g ai/ha
Outline: as §1

[15] = system: soybean (Glycine max); assay: as above; conditions: 10 days, 0 = no effect, 100 = complete control; for Soybean plant response rating (0-100): 31 g ai/ha; for Soybean plant response rating (0 to 100 scale): 125 g ai/ha
Outline: as §1

[16] = system: oat, wild (wild oat, Avena fatua); assay: as above; conditions: 10 days, 0 = no effect, 100 = complete control; for Oat, Wild plant response rating (0-100): 31 g ai/ha; for Oat, Wild plant response rating (0 to 100 scale): 125 g ai/ha
Outline: as §1

[17] = system: wheat (Triticum aestivum); assay: as above; conditions: 10 days, 0 = no effect, 100 = complete control; for Wheat plant response rating (0-100): 31 g ai/ha; for Wheat plant response rating (0 to 100 scale): 125 g ai/ha
Outline: as §1

[18] = system: palmer (palmer amaranth, palmer pigweed, Amaranthus palmeri); assay: as above; conditions: 10 days, 0 = no effect, 100 = complete control; for Amaranth, Palmer plant response rating (0-100): 31 g ai/ha; for Amaranth, Palmer plant response rating (0 to 100 scale): 125 g ai/ha
Outline: as §1

[19] = system: ryegrass, Italian (italian ryegrass, Lolium multiflorum); assay: as above; conditions: 10 days, 0 = no effect, 100 = complete control; for Ryegrass, Italian plant response rating (0-100): 31 g ai/ha; for Ryegrass, Italian plant response rating (0 to 100 scale): 125 g ai/ha
Outline: as §1

[20] = system: kochia (Bassia scoparia); assay: as above; conditions: 10 days, 0 = no effect, 100 = complete control; for Kochia plant response rating (0-100): 31 g ai/ha; for Kochia plant response rating (0 to 100 scale): 125 g ai/ha
Outline: as §1

[21] = system: corn (Zea mays); assay: as above; conditions: 10 days, 0 = no effect, 100 = complete control; for Corn plant response rating (0-100): 31 g ai/ha; for Corn plant response rating (0 to 100 scale): 125 g ai/ha
Outline: as §1

[22] = system: blackgrass (Alopecurus myosuroides); assay: as above; conditions: 10 days, 0 = no effect, 100 = complete control; for Blackgrass plant response rating (0-100): 31 g ai/ha; for Blackgrass plant response rating (0 to 100 scale): 125 g ai/ha
Outline: as §1

[23] = system: sedge, umbrella (small-flower umbrella sedge, Cyperus difformis); assay: Test B flooded paddy test, visual plant response rating 0-100; conditions: 250 g ai/ha, Flood, applied to paddy water, evaluated after 13 days
Outline: (§2)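 Greenhouse, 13 d. Seedlings at 2-leaf stage, pots flooded to 3 cm, compound delivered into floodwater, water level held constant. Evaluated visually relative to controls.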

[24] = system: barnyardgrass (Echinochloa crusgalli); assay: as above; conditions: 250 g ai/ha, Flood, applied to paddy water, evaluated after 13 days
Outline: as §2

[25] = system: ducksalad (Heteranthera limosa); assay: as above; conditions: 250 g ai/ha, Flood, applied to paddy water, evaluated after 13 days
Outline: as §2

[26] = system: rice (Oryza sativa); assay: as above; conditions: 250 g ai/ha, Flood, applied to paddy water, evaluated after 13 days
Outline: as §2

CC1(C(=O)NC2C=CC(C(=O)OC3CCCC3)C2)CN(c2cc(Cl)cc(Cl)c2)C(=O)O1 (stereo not drawn) [Compound 59]
100: Soybean plant response rating (0 to 100 scale) [4] | Amaranth, Palmer / Pigweed, Palmer plant response rating (0 to 100 scale) [8] | Corn plant response rating (0 to 100 scale) [11] | Blackgrass plant response rating (0-100) [12] | Blackgrass plant response rating (0 to 100 scale) [12] | Barnyardgrass plant response rating (0 to 100 scale) [14] | Amaranth, Palmer plant response rating (0-100) [18] | Amaranth, Palmer plant response rating (0 to 100 scale) [18]
80: Ragweed plant response rating (0 to 100 scale) [2] | Kochia plant response rating (0-100) [10] | Oat, Wild plant response rating (0 to 100 scale) [16] | Ryegrass, Italian plant response rating (0 to 100 scale) [19] | Kochia plant response rating (0 to 100 scale) [20]
98: Plant response rating, Sedge, Umbrella (0 to 100 scale, 0 is no effect and 100 is complete control) [23]
0: Corn plant response rating (0-100) [21] | Blackgrass plant response rating (0-100) [22]
85: Plant response rating, Ducksalad (0 to 100 scale, 0 is no effect and 100 is complete control) [25]
60: Oat, Wild plant response rating (0-100) [6] | Ragweed plant response rating (0 to 100 scale) [13] | Barnyardgrass plant response rating (0-100) [14] | Soybean plant response rating (0 to 100 scale) [15] | Ryegrass, Italian plant response rating (0-100) [19] | Blackgrass plant response rating (0 to 100 scale) [22]
40: Kochia plant response rating (0-100) [20]
90: Barnyardgrass plant response rating (0-100) [3] | Barnyardgrass plant response rating (0 to 100 scale) [3] | Soybean plant response rating (0-100) [4] | Galium plant response rating (0-100) [5] | Galium plant response rating (0 to 100 scale) [5] | Oat, Wild plant response rating (0 to 100 scale) [6] | Wheat plant response rating (0-100) [7] | Wheat plant response rating (0 to 100 scale) [7] | Amaranth, Palmer plant response rating (0-100) [8] | Ryegrass, Italian plant response rating (0-100) [9] | Ryegrass, Italian plant response rating (0 to 100 scale) [9] | Kochia plant response rating (0 to 100 scale) [10] | Corn plant response rating (0-100) [11] | Plant response rating, Barnyardgrass (0 to 100 scale, 0 is no effect and 100 is complete control) [24]
70: Horseweed plant response rating (0 to 100 scale) [1] | Wheat plant response rating (0 to 100 scale) [17]
10: Oat, Wild plant response rating (0-100) [16]
30: Ragweed plant response rating (0-100) [2] | Ragweed plant response rating (0-100) [13] | Soybean plant response rating (0-100) [15] | Wheat plant response rating (0-100) [17]
50: Corn plant response rating (0 to 100 scale) [21] | Plant response rating, Rice (0 to 100 scale, 0 is no effect and 100 is complete control) [26]
20: Horseweed plant response rating (0-100) [1]

CCOC(=O)C1=CCC(NC(=O)C2(C)CN(c3cc(Cl)cc(Cl)c3)C(=O)O2)C1 (stereo not drawn) [Compound 60]
60: Ragweed plant response rating (0 to 100 scale) [13] | Barnyardgrass plant response rating (0-100) [14] | Ryegrass, Italian plant response rating (0-100) [19] | Corn plant response rating (0 to 100 scale) [21]
10: Oat, Wild plant response rating (0-100) [6] | Soybean plant response rating (0-100) [15]
20: Ragweed plant response rating (0 to 100 scale) [2] | Oat, Wild plant response rating (0 to 100 scale) [16] | Wheat plant response rating (0-100) [17]
65: Plant response rating, Rice (0 to 100 scale, 0 is no effect and 100 is complete control) [26]
80: Kochia plant response rating (0-100) [10] | Kochia plant response rating (0 to 100 scale) [10] | Wheat plant response rating (0 to 100 scale) [17]
70: Horseweed plant response rating (0-100) [1] | Plant response rating, Barnyardgrass (0 to 100 scale, 0 is no effect and 100 is complete control) [24]
30: Ragweed plant response rating (0-100) [13]
100: Soybean plant response rating (0 to 100 scale) [4] | Amaranth, Palmer / Pigweed, Palmer plant response rating (0 to 100 scale) [8] | Ryegrass, Italian plant response rating (0 to 100 scale) [9] | Corn plant response rating (0 to 100 scale) [11] | Blackgrass plant response rating (0 to 100 scale) [12] | Barnyardgrass plant response rating (0 to 100 scale) [14] | Amaranth, Palmer plant response rating (0-100) [18] | Amaranth, Palmer plant response rating (0 to 100 scale) [18] | Plant response rating, Sedge, Umbrella (0 to 100 scale, 0 is no effect and 100 is complete control) [23]
0: Ragweed plant response rating (0-100) [2] | Oat, Wild plant response rating (0-100) [16] | Corn plant response rating (0-100) [21] | Blackgrass plant response rating (0-100) [22]
95: Plant response rating, Ducksalad (0 to 100 scale, 0 is no effect and 100 is complete control) [25]
90: Horseweed plant response rating (0 to 100 scale) [1] | Barnyardgrass plant response rating (0-100) [3] | Barnyardgrass plant response rating (0 to 100 scale) [3] | Soybean plant response rating (0-100) [4] | Galium plant response rating (0-100) [5] | Galium plant response rating (0 to 100 scale) [5] | Oat, Wild plant response rating (0 to 100 scale) [6] | Wheat plant response rating (0 to 100 scale) [7] | Amaranth, Palmer plant response rating (0-100) [8] | Ryegrass, Italian plant response rating (0-100) [9] | Corn plant response rating (0-100) [11] | Blackgrass plant response rating (0-100) [12] | Ryegrass, Italian plant response rating (0 to 100 scale) [19] | Kochia plant response rating (0 to 100 scale) [20]
40: Wheat plant response rating (0-100) [7] | Soybean plant response rating (0 to 100 scale) [15] | Kochia plant response rating (0-100) [20]
50: Blackgrass plant response rating (0 to 100 scale) [22]
